The test deals with T1, hM1 (human Muscarinic receptor subtype 1) (Homo sapiens, UniProt P11229).
T1 construct: expressed in transfected cells; host or cells: CHO cells (Chinese hamster ovary cells, ATCC)
T1 sequence (P11229 1-460): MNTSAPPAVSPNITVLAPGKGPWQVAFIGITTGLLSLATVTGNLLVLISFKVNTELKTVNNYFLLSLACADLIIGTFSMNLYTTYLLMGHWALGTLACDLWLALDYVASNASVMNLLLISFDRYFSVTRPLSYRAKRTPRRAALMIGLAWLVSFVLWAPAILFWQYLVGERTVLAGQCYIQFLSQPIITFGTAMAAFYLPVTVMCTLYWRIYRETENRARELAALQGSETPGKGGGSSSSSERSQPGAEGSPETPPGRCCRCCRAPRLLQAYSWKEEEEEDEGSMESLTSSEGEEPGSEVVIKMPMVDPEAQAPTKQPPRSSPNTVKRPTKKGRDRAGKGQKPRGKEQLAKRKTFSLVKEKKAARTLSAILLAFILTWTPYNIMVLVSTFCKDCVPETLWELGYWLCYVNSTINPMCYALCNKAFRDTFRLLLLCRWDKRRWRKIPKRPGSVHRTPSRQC
Description: Human M1 calcium mobilization FLIPR assay. The class given is cell-based. To be noted: hM1 expressed in CHO cells, intracellular Ca2+ release, read-out: hM1 EC50. The method, then:
Human M1, rat M1, human M3 and human M5 Calcium Mobilization FLIPR™ Assay
The compound activity in the present invention (EC50 or IC50) is measured using a 384 plate-based imaging assay that monitors drug induced intracellular Ca^2+ release in whole cells. Activation of hM1 (human Muscarinic receptor subtype 1, gene bank access NM_000738), rM1 (rat Muscarinic receptor subtype 1, gene bank access NM_080773), hM3 (human Muscarinic receptor subtype 3, gene bank access NM_000740NM_000740) and hM5 (human Muscarinic receptor subtype 5, gene bank access NM_0121258), receptors expressed in CHO cells (Chinese hamster ovary cells, ATCC) is quantified in a Molecular Devices FLIPR II™ instrument as an increase in fluorescent signal. Inhibition of hM3 and hM5 by compounds is determined by the decrease in fluorescent signal in response to 2 nM acetylcholine activation.
Prior to experiment, the cell culture medium is removed from the plates by inversion. […] Plates are incubated at 37° C. for 60 minutes prior to start the experiment. The incubation is terminated by washing the cells four times in assay buffer, leaving a residual 25 μl buffer per well. Cell plates are then transferred to the FLIPR, ready for compound additions.
The day of experiment, acetylcholine and compounds are diluted in assay buffer in three-fold concentration range (10 points serial dilution) for addition by FLIPR instrument. For all calcium assays, a baseline reading is taken for 10 seconds followed by the addition of 12.5 μl of compounds, resulting in a total well volume of 37.5 μl. Data is collected every second for 60 pictures and then every 6 seconds for 20 pictures prior to the addition of agonist. For hM3 and hM5, before agonist addition, a second baseline reading is taken for 10 seconds followed by the addition of 12.5 μl of agonist or buffer, producing a final volume of 50 μl. After agonist stimulation, the FLIPR continues to collect data every second for 60 pictures and then every 6 seconds for 20 pictures. The fluorescence emission is read using filter 1 (emission 510-570 nm) by the FLIPR on board CCD camera.
Calcium mobilization output data are calculated as the maximal relative fluorescence unit (RFU) minus the minimal value for both compound and agonist reading frame (except for hM1 and rM1 using only the maximal RFU). Data are analyzed using sigmoidal fits of a non-linear curve-fitting program (XLfit version 4.2.2 Excel add-in version 4.2.2 build 18 math 1Q version 2.1.2 build 18). All pEC50 and plC50 values are reported as arithmetic means ±standard error of mean of ‘n’ independent experiments.
For orientation: Calcium assays in cells follow changes in intracellular calcium, usually with a dye or a luminescent sensor.

Structures are written as SMILES.

Usually EC50 stands for the concentration needed to bring the measured effect to its halfway point. For `COC(=O)N1CCC(C)(N2CCC(N3C(=O)Cc4ccccc43)CC2)C1` (stereo not shown) [Example 71, methyl 3-methyl-3-(4-(2-oxoindolin-1-yl)piperidin-1-yl)pyrrolidine-1-carboxylate], the EC50 stood at 0.123 µM.

Take `CCOC(=O)N1CCC(C)(N2CCC(N3C(=O)Cc4c3cc(F)cc4C(C)(C)C)CC2)C1` (stereo not shown) [Example 85, ethyl 3-(4-(4-tert-butyl-6-fluoro-2-oxoindolin-1-yl)piperidin-1-yl)-3-methylpyrrolidine-1-carboxylate]: the EC50 was determined as 1.47 µM.

As for `COC(=O)N1CCC(C)(N2CCC(N3C(=O)Cc4c3cc(C)cc4C(C)(C)C)CC2)C1` (stereo not shown) [Example 86, methyl 3-(4-(4-tert-butyl-6-methyl-2-oxoindolin-1-yl)piperidin-1-yl)-3-methylpyrrolidine-1-carboxylate], the EC50 was determined as 1.42 µM.

For the compound `CCOC(=O)N1CCC(C)(N2CCC(N3C(=O)C4(CC4)c4ccc(F)cc43)CC2)C1` (stereo not shown) [Example 87, ethyl 3-(4-(6′-fluoro-2′-oxospiro[cyclopropane-1,3′-indoline]-1′-yl)piperidin-1-yl)-3-methylpyrrolidine-1-carboxylate], the concentration for a half-maximal effect (EC50) was determined as 0.125 µM.
